According to patent EP2573089A1, “Novel artmisinin derivatives” (Spago Imaging AB, priority 2011, dated 2013):

Assay type: physicochemical
Conditions: for area of the main peak has decreased: after 72h at pH = 2.3, sodiumphosphate buffer, HPLC-ELSD
Experimental: Example 11. The acid stability of four dihydroartemisinin (DHA) derivatives was investigated. […] Phenomex Luna; 50 x 4.6 mm, 3 μ C18. ACN/H2O; 60/40 at 1.0 ml/min DHA dissolved in mob. phase to give 0,21 mg/ml Compound of formula 1, n=4 (3PEG-DHA) dissolved in H2O to give 0.48 mg/ml in 0.1 M buffer. […] Artemisone dissolved in mob. phase to give 0.20 mg/ml in 0.1 M buffer, Artesunate dissolved in mob. phase to give 0.24 mg/ml in 0.1 M buffer. 20 μ[…]

In the case of `C[C@H]1[C@H](N2CCS(=O)(=O)CC2)O[C@@H]2O[C@@]3(C)CC[C@H]4[C@H](C)CC[C@@H]1[C@@]24OO3` [artemison, artemisone], the degradation is reported as “No sign of degradation” and the “area of the main peak has decreased” value is reported as “about 71%”.

For `C[C@H]1[C@H](OC(=O)CCC(=O)O)O[C@@H]2O[C@@]3(C)CC[C@H]4[C@H](C)CC[C@@H]1[C@@]24OO3` [artesunate], the degradation was “No sign of degradation”, the degraded (72 h, 0.24 mg/ml, pH 2.3) was 41% and the “area of the main peak has decreased” value was “about 40%”.
